Experimental data reported in PubChem BioAssay AID256 (DTP/NCI, 2004).
Where “and” joins values, the source holds several entries; their conditions need not be identical. Equal entries are not always repeated. Toxic doses and inconclusive results are not listed. The calls were made as follows: active = survival T/C of 150% or more; inactive = T/C below 125% in these data.

System: CD2F1 mice, L1210 leukemia ip, survival T/C
Test: NCI In Vivo Anticancer Drug Screen. Data for tumor model L1210 Leukemia (intraperitoneal) in CD2F1 (CDF1) mice
Settings: higher = longer survival
In short: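 In this screen, transplantable tumors were grown in mice given either the compound or its vehicle. Results were expressed as the treated measurement relative to the control measurement.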

[1] = endpoint: mean survival time, dose: 100.0 mg/kg/injection, schedule: Q04DX003 (ip), vehicle: saline
[2] = endpoint: mean survival time, dose: 200.0 mg/kg/injection, schedule: Q04DX003 (ip), vehicle: saline
[3] = endpoint: mean survival time, dose: 400.0 mg/kg/injection, schedule: Q04DX003 (ip), vehicle: saline
[4] = endpoint: mean survival time, dose: 100.0 mg/kg/injection, schedule: Q04DX002 (ip), vehicle: saline with Tween-80
[5] = endpoint: mean survival time, dose: 100.0 mg/kg/injection, schedule: Q01DX009 (ip), vehicle: saline
[6] = endpoint: mean survival time, dose: 200.0 mg/kg/injection, schedule: Q01DX009 (ip), vehicle: saline
[7] = endpoint: mean survival time, dose: 400.0 mg/kg/injection, schedule: Q01DX009 (ip), vehicle: saline
[8] = endpoint: mean survival time, dose: 100.0 mg/kg/injection, schedule: Q04DX003 (ip), vehicle: saline with Tween-80
[9] = endpoint: mean survival time, dose: 200.0 mg/kg/injection, schedule: Q04DX003 (ip), vehicle: saline with Tween-80
[10] = endpoint: mean survival time, dose: 400.0 mg/kg/injection, schedule: Q04DX003 (ip), vehicle: saline with Tween-80
[11] = endpoint: mean survival time, dose: 100.0 mg/kg/injection, schedule: Q01DX001 (ip), vehicle: saline with Tween-80
[12] = endpoint: mean survival time, dose: 100.0 mg/kg/injection, schedule: Q01DX009 (ip), vehicle: saline with Tween-80
[13] = endpoint: mean survival time, dose: 200.0 mg/kg/injection, schedule: Q01DX001 (ip), vehicle: saline with Tween-80
[14] = endpoint: mean survival time, dose: 200.0 mg/kg/injection, schedule: Q01DX009 (ip), vehicle: saline with Tween-80
[15] = endpoint: mean survival time, dose: 400.0 mg/kg/injection, schedule: Q01DX001 (ip), vehicle: saline with Tween-80
[16] = endpoint: mean survival time, dose: 400.0 mg/kg/injection, schedule: Q01DX009 (ip), vehicle: saline with Tween-80
[17] = endpoint: mean survival time, dose: 100.0 mg/kg/injection, schedule: Q04DX003 (ip), vehicle: Klucel (hydroxypropylcellulose) (HPC)
[18] = endpoint: mean survival time, dose: 200.0 mg/kg/injection, schedule: Q04DX003 (ip), vehicle: Klucel (hydroxypropylcellulose) (HPC)
[19] = endpoint: mean survival time, dose: 400.0 mg/kg/injection, schedule: Q04DX003 (ip), vehicle: Klucel (hydroxypropylcellulose) (HPC)
[20] = endpoint: mean survival time, dose: 100.0 mg/kg/injection, schedule: Q01DX001 (ip), vehicle: saline
[21] = endpoint: mean survival time, dose: 200.0 mg/kg/injection, schedule: Q01DX001 (ip), vehicle: saline
[22] = endpoint: mean survival time, dose: 25.0 mg/kg/injection, schedule: Q04DX002 (ip), vehicle: saline with Tween-80
[23] = endpoint: mean survival time, dose: 50.0 mg/kg/injection, schedule: Q04DX002 (ip), vehicle: saline with Tween-80
[24] = endpoint: mean survival time, dose: 50.0 mg/kg/injection, schedule: Q01DX001 (ip), vehicle: saline

Measured: T/C

Nc1ncnc2c1ncn2C1OC(CO)C2NP(=O)(N(CCCl)CCCl)OC21 (stereo not given)
inactive: endpoint: mean survival time, dose: 15.6 mg/kg/injection, schedule: Q01DX001 (ip), vehicle: distilled water + Tween-80 98 % of control and 101 % of control | endpoint: mean survival time, dose: 31.3 mg/kg/injection, schedule: Q01DX001 (ip), vehicle: distilled water + Tween-80 101 % of control | endpoint: mean survival time, dose: 62.5 mg/kg/injection, schedule: Q01DX001 (ip), vehicle: distilled water + Tween-80 101 % of control

CC(=O)C(C)N(C)C (stereo not given)
inactive: [1] 105 % of control | [2] 100 % of control | [3] 96 % of control

O=C(COc1ccc(F)cc1F)OC(=O)Cc1ccc(Br)cc1
inactive: [4] 101 % of control | endpoint: mean survival time, dose: 200.0 mg/kg/injection, schedule: Q04DX002 (ip), vehicle: saline with Tween-80 105 % of control | endpoint: mean survival time, dose: 400.0 mg/kg/injection, schedule: Q04DX002 (ip), vehicle: saline with Tween-80 86 % of control

OCC12OCC(O1)C(O)C(O)C2O (stereo not given)
inactive: [5] 97 % of control | [6] 103 % of control | [7] 98 % of control

CC(=O)Nc1ccccc1C
inactive: [8] 97 % of control | [9] 97 % of control | [10] 99 % of control

N/N=C\C(=N/N)C(O)C(O)C(O)CO (stereo not given)
inactive: [11] 87 % of control

Cc1ccc(S(=O)(=O)OC(c2ccc(Cl)cc2)C(F)(F)F)cc1 (stereo not given)
inactive: [11] 101 % of control | [12] 93 % of control | [13] 95 % of control | [14] 86 % of control | [15] 101 % of control | [16] 87 % of control

O=C(/C=C/c1ccc(Cl)cc1)c1ccc(Cl)cc1
inactive: [8] 98 % of control | [9] 90 % of control | [10] 93 % of control

CN(C)c1ccc(C=C(c2ccc(N)cc2)c2ccc(N)cc2)cc1
inactive: [12] 91 % of control | [14] 92 % of control | [16] 94 % of control

CCCCCCOc1ccc(N=Cc2ccc(N(C)C)cc2)cc1
inactive: endpoint: mean survival time, dose: 75.0 mg/kg/injection, schedule: Q01DX001 (ip), vehicle: other 93 % of control | endpoint: mean survival time, dose: 150.0 mg/kg/injection, schedule: Q01DX001 (ip), vehicle: other 94 % of control

Cc1c(Cl)cccc1N=Cc1ccc2c(c1)OCO2
inactive: [17] 102 % of control | [18] 96 % of control | [19] 102 % of control

CCCCCCCCCCCCOc1ccc(Cl)cc1Sc1cc(Cl)ccc1OCCCCCCCCCCCC
inactive: [11] 92 % of control | [13] 93 % of control | [15] 86 % of control

C[N+](C)(C)C.N=C=O.N=C=O.N=C=O.N=C=O.[Co+2]
inactive: endpoint: mean survival time, dose: 10.0 mg/kg/injection, schedule: Q01DX009 (ip), vehicle: saline 98 % of control

C#CC12CCCCN1CCC2 (stereo not given)
inactive: [20] 93 % of control | [21] 97 % of control

COc1ccc(O)cc1
inactive: endpoint: median survival time, dose: 12.5 mg/kg/injection, schedule: Q01DX005 (ip), vehicle: saline with Tween-80 98 % of control | endpoint: median survival time, dose: 25.0 mg/kg/injection, schedule: Q01DX005 (ip), vehicle: saline with Tween-80 98 % of control | endpoint: median survival time, dose: 50.0 mg/kg/injection, schedule: Q01DX005 (ip), vehicle: saline with Tween-80 95 % of control | endpoint: median survival time, dose: 100.0 mg/kg/injection, schedule: Q01DX005 (ip), vehicle: saline with Tween-80 103 % of control | endpoint: median survival time, dose: 200.0 mg/kg/injection, schedule: Q01DX005 (ip), vehicle: saline with Tween-80 116 % of control

CC(=O)Nc1ccc(C)cc1C
inactive: [17] 94 % of control | [18] 103 % of control | [19] 97 % of control

CCN1/C(=C/C=C/c2oc3ccc4ccccc4c3[n+]2CC)Oc2ccc3ccccc3c21
inactive: endpoint: mean survival time, dose: 9.5 mg/kg/injection, schedule: Q01DX001 (ip), vehicle: other 104 % of control | endpoint: mean survival time, dose: 19.0 mg/kg/injection, schedule: Q01DX001 (ip), vehicle: other 112 % of control | endpoint: mean survival time, dose: 38.0 mg/kg/injection, schedule: Q01DX001 (ip), vehicle: other 118 % of control

COc1ccc2c3c(ccc2c1)C1=NCCC1(C)CC3 (stereo not given)
inactive: endpoint: mean survival time, dose: 100.0 mg/kg/injection, schedule: Q01DX001 (sc), vehicle: Klucel (hydroxypropylcellulose) (HPC) 101 % of control | endpoint: mean survival time, dose: 100.0 mg/kg/injection, schedule: Q04DX003 (sc), vehicle: steriod suspending solution 105 % of control | endpoint: mean survival time, dose: 200.0 mg/kg/injection, schedule: Q01DX001 (sc), vehicle: Klucel (hydroxypropylcellulose) (HPC) 101 % of control | endpoint: mean survival time, dose: 200.0 mg/kg/injection, schedule: Q04DX003 (sc), vehicle: steriod suspending solution 102 % of control | endpoint: mean survival time, dose: 400.0 mg/kg/injection, schedule: Q01DX001 (sc), vehicle: Klucel (hydroxypropylcellulose) (HPC) 93 % of control | endpoint: mean survival time, dose: 400.0 mg/kg/injection, schedule: Q04DX003 (sc), vehicle: steriod suspending solution 108 % of control

O=N[O-].O=N[O-].[Co].[NH2-].[NH2-].[NH2-].[NH2-]
inactive: [22] 93 % of control | [23] 101 % of control | [4] 101 % of control

COC1(OC)C2(Cl)CCC1(Cl)CC2
inactive: [24] 103 % of control | [20] 113 % of control | [21] 102 % of control

OCc1ccc[n+](CCc2c[nH]c3ccccc23)c1
inactive: endpoint: mean survival time, dose: 50.0 mg/kg/injection, schedule: Q01DX009 (ip), vehicle: saline with Tween-80 104 % of control | [12] 95 % of control

CC(C)=CC1C(C(=O)OCc2ccc(C)cc2C)C1(C)C (stereo not given)
inactive: [24] 94 % of control | [20] 91 % of control | [5] 96 % of control | [1] 87 % of control | [6] 96 % of control | [2] 87 % of control | endpoint: mean survival time, dose: 400.0 mg/kg/injection, schedule: Q01DX001 (ip), vehicle: saline 100 % of control | [7] 102 % of control | [3] 94 % of control

COc1cc2c(cc1OC)C(=O)C(C)(c1ccccc1)NC2 (stereo not given)
inactive: [8] 96 % of control | [9] 96 % of control | [10] 94 % of control

CCCCCCCCCCCCCCCCN(C)c1ccc(C(=O)OC)cc1[N+](=O)[O-]
inactive: endpoint: mean survival time, dose: 100.0 mg/kg/injection, schedule: Q01DX009 (ip), vehicle: Klucel (hydroxypropylcellulose) (HPC) 97 % of control | [1] 98 % of control | endpoint: mean survival time, dose: 200.0 mg/kg/injection, schedule: Q01DX009 (ip), vehicle: Klucel (hydroxypropylcellulose) (HPC) 101 % of control | [2] 91 % of control | endpoint: mean survival time, dose: 400.0 mg/kg/injection, schedule: Q01DX009 (ip), vehicle: Klucel (hydroxypropylcellulose) (HPC) 97 % of control | [3] 95 % of control

CSc1ccc(OC(=O)Nc2ccc(C)c([N+](=O)[O-])c2)cc1C
inactive: [8] 92 % of control | [9] 92 % of control | [10] 96 % of control

O=C(Nc1cccc(Cl)c1)c1c[nH]c2cc(Cl)ccc2c1=O
inactive: [12] 101 % of control | [8] 96 % of control | [14] 95 % of control | [9] 93 % of control | [16] 101 % of control | [10] 93 % of control

Cn1c(=O)[nH]c2c(-c3ccccc3)n[nH]c2c1=O
inactive: endpoint: median survival time, dose: 25.0 mg/kg/injection, schedule: Q04DX003 (ip), vehicle: saline with Tween-80 90 % of control | endpoint: median survival time, dose: 100.0 mg/kg/injection, schedule: Q04DX003 (ip), vehicle: saline with Tween-80 90 % of control | endpoint: median survival time, dose: 200.0 mg/kg/injection, schedule: Q04DX003 (ip), vehicle: saline with Tween-80 90 % of control

Cc1ccc(S(=O)(=O)ON/N=C2\C(=O)C3CCC2C3)cc1 (stereo not given)
inactive: [22] 100 % of control | [23] 96 % of control | [4] 112 % of control

Nc1nnc(C(F)(F)F)s1
inactive: endpoint: mean survival time, dose: 100.0 mg/kg/injection, schedule: Q04DX002 (ip), vehicle: Klucel (hydroxypropylcellulose) (HPC) 101 % of control | endpoint: mean survival time, dose: 200.0 mg/kg/injection, schedule: Q04DX002 (ip), vehicle: Klucel (hydroxypropylcellulose) (HPC) 101 % of control | endpoint: mean survival time, dose: 400.0 mg/kg/injection, schedule: Q04DX002 (ip), vehicle: Klucel (hydroxypropylcellulose) (HPC) 108 % of control
